What all share (type): cell-based
One assay deals with T1, human TLR8 (Homo sapiens, UniProt Q9NR97).
T1 construct: host or cells: HEK-Blue cells
T1 sequence (Q9NR97 27-1041): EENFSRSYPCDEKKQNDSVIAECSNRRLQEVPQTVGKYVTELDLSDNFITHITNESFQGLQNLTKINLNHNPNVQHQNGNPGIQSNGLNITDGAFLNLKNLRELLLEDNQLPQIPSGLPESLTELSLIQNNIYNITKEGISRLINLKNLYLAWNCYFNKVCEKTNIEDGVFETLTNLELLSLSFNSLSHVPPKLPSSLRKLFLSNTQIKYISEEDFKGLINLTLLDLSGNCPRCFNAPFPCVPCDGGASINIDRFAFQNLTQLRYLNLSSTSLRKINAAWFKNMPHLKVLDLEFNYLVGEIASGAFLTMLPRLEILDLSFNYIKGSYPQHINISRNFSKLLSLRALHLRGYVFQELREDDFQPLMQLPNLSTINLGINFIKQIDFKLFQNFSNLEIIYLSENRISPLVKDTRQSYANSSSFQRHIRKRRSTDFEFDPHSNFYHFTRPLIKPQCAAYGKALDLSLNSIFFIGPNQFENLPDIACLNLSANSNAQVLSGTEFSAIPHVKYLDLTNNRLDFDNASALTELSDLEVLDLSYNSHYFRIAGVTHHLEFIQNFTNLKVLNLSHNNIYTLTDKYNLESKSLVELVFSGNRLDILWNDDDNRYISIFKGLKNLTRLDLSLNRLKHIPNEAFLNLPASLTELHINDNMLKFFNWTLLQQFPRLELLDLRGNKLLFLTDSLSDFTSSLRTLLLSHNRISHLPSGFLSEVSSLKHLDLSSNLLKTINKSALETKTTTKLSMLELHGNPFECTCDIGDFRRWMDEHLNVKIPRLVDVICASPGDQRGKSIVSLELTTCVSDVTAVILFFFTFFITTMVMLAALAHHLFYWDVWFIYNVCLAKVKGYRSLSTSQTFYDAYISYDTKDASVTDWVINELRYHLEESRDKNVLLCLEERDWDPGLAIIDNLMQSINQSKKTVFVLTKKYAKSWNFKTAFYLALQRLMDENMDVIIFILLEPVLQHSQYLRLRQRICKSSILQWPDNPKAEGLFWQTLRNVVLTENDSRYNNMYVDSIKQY
In words: TLR8 inhibition reporter assay (HEK-Blue SEAP reporter, R848 stimulation). Conditions: HEK-Blue cells overexpressing human TLR8, SEAP reporter, R848 15.9 μM, 22 hour incubation. The procedure, abridged:
(§1)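 Screening used HEK-Blue cells overexpressing one human TLR (7, 8 or 9) and an IFN-β minimal promoter–NF-κB/AP-1 SEAP construct. Stimulation lasted 22 h at 37 °C with receptor-specific agonist: gardiquimod, R848 or ODN2006 at 7.5 μM, 15.9 μM and 5 nM.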
(In general: A reporter such as luciferase makes a cellular process visible.)

The next assay addresses T2, human TLR7 (Homo sapiens, UniProt Q9NYK1).
T2 construct: host or cells: HEK-Blue cells
T2 sequence (Q9NYK1 27-1049): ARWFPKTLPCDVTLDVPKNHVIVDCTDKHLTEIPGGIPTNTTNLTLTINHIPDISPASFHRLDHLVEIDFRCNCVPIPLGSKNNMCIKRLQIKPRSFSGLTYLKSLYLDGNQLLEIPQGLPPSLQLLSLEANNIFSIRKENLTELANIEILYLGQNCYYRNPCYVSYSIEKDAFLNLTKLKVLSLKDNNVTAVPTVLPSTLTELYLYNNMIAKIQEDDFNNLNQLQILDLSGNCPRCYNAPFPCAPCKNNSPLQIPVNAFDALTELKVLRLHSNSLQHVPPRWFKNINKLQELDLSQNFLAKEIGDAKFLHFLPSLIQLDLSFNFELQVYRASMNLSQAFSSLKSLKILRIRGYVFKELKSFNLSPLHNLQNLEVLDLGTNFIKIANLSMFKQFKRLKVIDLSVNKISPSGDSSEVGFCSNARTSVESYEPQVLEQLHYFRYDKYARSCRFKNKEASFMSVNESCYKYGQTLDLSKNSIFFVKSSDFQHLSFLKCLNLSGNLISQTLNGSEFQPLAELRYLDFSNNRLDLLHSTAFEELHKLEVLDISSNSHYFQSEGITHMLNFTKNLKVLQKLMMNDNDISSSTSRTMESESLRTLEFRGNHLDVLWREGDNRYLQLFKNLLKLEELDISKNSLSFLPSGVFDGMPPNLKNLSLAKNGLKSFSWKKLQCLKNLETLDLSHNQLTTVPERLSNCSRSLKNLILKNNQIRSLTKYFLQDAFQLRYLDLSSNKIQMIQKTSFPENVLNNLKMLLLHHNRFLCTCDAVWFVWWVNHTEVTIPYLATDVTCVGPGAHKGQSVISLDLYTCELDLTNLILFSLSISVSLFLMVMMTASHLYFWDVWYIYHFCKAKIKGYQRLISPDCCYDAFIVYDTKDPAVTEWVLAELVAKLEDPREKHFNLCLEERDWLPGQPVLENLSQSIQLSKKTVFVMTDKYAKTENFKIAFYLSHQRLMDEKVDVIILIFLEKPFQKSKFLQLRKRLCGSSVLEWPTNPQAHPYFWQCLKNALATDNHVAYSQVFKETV
In words: TLR7 inhibition reporter assay (HEK-Blue SEAP reporter, gardiquimod stimulation). The following applies: HEK-Blue cells overexpressing human TLR7, SEAP reporter, gardiquimod 7.5 μM, 22 hour incubation. The procedure, abridged: as §1

In the next assay the target is T3, human TLR9 (Homo sapiens, UniProt Q9NR96).
T3 construct: host or cells: HEK-Blue cells
T3 sequence (Q9NR96 26-1032): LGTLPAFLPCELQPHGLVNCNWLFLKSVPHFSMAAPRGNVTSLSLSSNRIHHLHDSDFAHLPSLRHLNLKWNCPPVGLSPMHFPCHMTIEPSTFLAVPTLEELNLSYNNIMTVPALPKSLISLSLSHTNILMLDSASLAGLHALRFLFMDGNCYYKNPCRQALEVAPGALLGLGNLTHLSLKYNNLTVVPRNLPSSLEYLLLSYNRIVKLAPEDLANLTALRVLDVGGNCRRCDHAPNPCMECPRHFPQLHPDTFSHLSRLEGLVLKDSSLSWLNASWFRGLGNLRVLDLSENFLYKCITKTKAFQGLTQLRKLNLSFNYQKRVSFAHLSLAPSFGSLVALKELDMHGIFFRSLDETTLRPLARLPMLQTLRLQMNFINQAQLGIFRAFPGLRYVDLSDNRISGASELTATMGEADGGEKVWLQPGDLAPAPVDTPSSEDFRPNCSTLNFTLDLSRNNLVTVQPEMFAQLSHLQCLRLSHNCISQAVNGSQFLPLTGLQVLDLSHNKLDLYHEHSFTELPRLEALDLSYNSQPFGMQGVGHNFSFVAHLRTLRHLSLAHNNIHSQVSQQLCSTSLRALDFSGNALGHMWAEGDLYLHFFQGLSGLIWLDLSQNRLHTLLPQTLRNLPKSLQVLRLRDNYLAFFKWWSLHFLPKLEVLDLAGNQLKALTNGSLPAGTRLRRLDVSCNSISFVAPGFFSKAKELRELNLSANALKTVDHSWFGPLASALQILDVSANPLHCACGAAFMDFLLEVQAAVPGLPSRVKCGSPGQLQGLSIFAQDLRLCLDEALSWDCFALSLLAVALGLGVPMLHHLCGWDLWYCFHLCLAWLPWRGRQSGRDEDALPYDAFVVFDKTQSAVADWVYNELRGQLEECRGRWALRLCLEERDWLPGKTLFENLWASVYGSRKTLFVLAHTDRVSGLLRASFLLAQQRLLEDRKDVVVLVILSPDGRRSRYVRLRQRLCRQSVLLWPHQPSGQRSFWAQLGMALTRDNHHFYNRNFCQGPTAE
As to the kind of experiment: TLR9 inhibition reporter assay (HEK-Blue SEAP reporter, ODN2006 stimulation). The following applies: HEK-Blue cells overexpressing human TLR9, SEAP reporter, ODN2006 5 nM, 22 hour incubation. The method in brief:
as §1

This passage reports IC50 results from patent publication US11447466B2, “Substituted indole compounds useful as inhibitors of TLR7/8/9” (BRISTOL-MYERS SQUIBB COMPANY, priority 2017, dated 2022).

The term IC50 denotes the midpoint of a concentration-inhibition curve. A high value points to lower potency. With `Cc1nc(-c2[nH]c3ccc(C4CCN(CC(=O)N(C)C)CC4)cc3c2C(C)C)cn(C)c1=O` [Example 115, 2-(4-(2-(4,6-dimethyl-5-oxo-4,5-dihydropyrazin-2-yl)-3-isopropyl-1H-indol-5-yl)piperidin-1-yl)-N,N-dimethylacetamide], the IC50 at human TLR8 was found to be 42.1 nM; at human TLR7, 48 nM; on human TLR9, 6590 nM.

Take `COc1c(C)c(-c2[nH]c3ccc(C4CCNCC4)cc3c2C(C)C)cn(C)c1=O` [Example 29, 5-(3-isopropyl-5-(piperidin-4-yl)-1H-indol-2-yl)-3-methoxy-1,4-dimethylpyridin-2(1H)-one]: the IC50 on human TLR8 is 50.9 nM; against human TLR7, 14.1 nM; against human TLR9 it was 783 nM.

With `Cc1nc(-c2[nH]c3ccc(C4CCN(C(=O)CN(C)C)CC4)cc3c2C(C)C)cn(C)c1=O` [Example 295, 5-(5-(1-(dimethylglycyl)piperidin-4-yl)-3-isopropyl-1H-indol-2-yl)-1,3-dimethylpyrazin-2(1H)-one], the IC50 against human TLR8 was 61.9 nM; on human TLR7, 114 nM; on human TLR9 it was 9690 nM.

For the molecule `COCCN1CCC(c2ccc3[nH]c(-c4cc(-c5cnn(C)c5)c(=O)n(C)c4)c(C(C)C)c3c2)CC1` [Example 350, 5-(3-isopropyl-5-(1-(2-methoxyethyl)piperidin-4-yl)-1H-indol-2-yl)-1-methyl-3-(1-methyl-1H-pyrazol-4-yl)pyridin-2(1H)-one], the results for the half-inhibitory concentration (IC50) against human TLR8, on human TLR7 and at human TLR9 were 1.4 nM, 14.4 nM and 2140 nM, respectively.

On to `Cc1c(-c2[nH]c3ccc(C4CCN(C5COC5)CC4)cc3c2C(C)C)cn(C)c(=O)c1C` [Example 207, 5-(3-isopropyl-5-(1-(oxetan-3-yl)piperidin-4-yl)-1H-indol-2-yl)-1,3,4-trimethylpyridin-2(1H)-one], for which the IC50 on human TLR8 was determined as 11.7 nM; at human TLR7 it was 20.8 nM; against human TLR9, 46800 nM.

In the case of `CCn1cc(-c2[nH]c3ccc(C4CCN(CC(=O)NC)CC4)cc3c2C(C)C)c(C)c(C)c1=O` [Example 137, 2-(4-(2-(1-ethyl-4,5-dimethyl-6-oxo-1,6-dihydropyridin-3-yl)-3-isopropyl-1H-indol-5-yl)piperidin-1-yl)-N-methylacetamide], the IC50 against human TLR8 came to 12.3 nM; against human TLR7 it was 19.9 nM; against human TLR9 it was 11500 nM.

With `CCn1cc(-c2[nH]c3ccc(C4CCN(CC(=O)N(C)C)CC4)cc3c2C(C)C)c(C)c(C)c1=O` [Example 136, 2-(4-(2-(1-ethyl-4,5-dimethyl-6-oxo-1,6-dihydropyridin-3-yl)-3-isopropyl-1H-indol-5-yl)piperidin-1-yl)-N,N-dimethylacetamide], the IC50 on human TLR8 turned out to be 13.6 nM; against human TLR7, 12 nM; on human TLR9, 1950 nM.

Turning to `Cc1c(-c2[nH]c3ccc(C4CCN(C(C)C)CC4)cc3c2C(C)C)cn(C)c(=O)c1-c1cccnc1` [Example 237, 5-(3-isopropyl-5-(1-isopropylpiperidin-4-yl)-1H-indol-2-yl)-1,4-dimethyl-[3,3′-bipyridin]-2(1H)-one], the IC50 against human TLR8 came to 19.8 nM; at human TLR7, 181 nM; against human TLR9, 2100 nM.

For `Cc1c(-c2[nH]c3ccc(C4CCN(C5COC5)CC4)cc3c2C(C)C)cn(C)c(=O)c1Cl` [Example 248, 3-chloro-5-(3-isopropyl-5-(1-(oxetan-3-yl)piperidin-4-yl)-1H-indol-2-yl)-1,4-dimethylpyridin-2(1H)-one], the half-inhibitory concentration (IC50) against human TLR8 was 16.9 nM; at human TLR7, 5.6 nM; against human TLR9, 30000 nM.

Take `CNC(=O)CN1CCC(c2ccc3[nH]c(-c4cc(C)c(=O)n(Cc5ccccc5)c4)c(C(C)C)c3c2)CC1` [Example 162, 2-(4-(2-(1-benzyl-5-methyl-6-oxo-1,6-dihydropyridin-3-yl)-3-isopropyl-1H-indol-5-yl)piperidin-1-yl)-N-methylacetamide]: the IC50 amounted to 99.4 nM on human TLR8, 8.4 nM at human TLR7 and 4120 nM against human TLR9.

Consider `CCn1cc(-c2[nH]c3ccc(C4CCN(CC(=O)N(C)C)CC4)cc3c2C(C)C)cc(C)c1=O` [Example 133, 2-(4-(2-(1-ethyl-5-methyl-6-oxo-1,6-dihydropyridin-3-yl)-3-isopropyl-1H-indol-5-yl)piperidin-1-yl)-N,N-dimethylacetamide], for which the figures for the IC50 at human TLR8, on human TLR7 and on human TLR9 were 6.2 nM, 24.1 nM and 14900 nM, respectively.

Consider `Cc1cc(-c2[nH]c3ccc(C4CCNCC4)cc3c2C(C)C)c(C)n(C)c1=O` [Example 3, 5-(3-isopropyl-5-(piperidin-4-yl)-1H-indol-2-yl)-1,3,6-trimethylpyridin-2(1H)-one], for which the IC50 on human TLR8 was found to be 3.4 nM; against human TLR7, 8.4 nM; against human TLR9, 979 nM.
